Test results published in ChEMBL document CHEMBL1201862, “PubChem BioAssay data set” (2004).
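Each compound was tested at five concentrations against cells in 96-well plates for 48 hours. At the GI50, growth is halved.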 Active and inactive are the calls of the source. No stated cut-off is given here; in the data, active = GI50 up to about 1.1 µM and inactive = higher.

What was measured:
Assay in all cases: DTP human tumour cell line panel, 48 h
SR = tested on: SR
OVCAR-5 = tested on: OVCAR-5
SF-268 = tested on: SF-268
HCT-15 = tested on: HCT-15
MDA-N = tested on: MDA-N
M14 = tested on: M14
NCI-H522 = tested on: NCI-H522
MCF7 = tested on: MCF7
PC-3 = tested on: PC-3
BT-549 = tested on: BT-549
UO-31 = tested on: UO-31
786-0 = tested on: 786-0
NCI/ADR-RES = tested on: NCI/ADR-RES
UACC-257 = tested on: UACC-257
MOLT-4 = tested on: MOLT-4
OVCAR-4 = tested on: OVCAR-4
HT-29 = tested on: HT-29
RPMI-8226 = tested on: RPMI-8226
NCI-H226 = tested on: NCI-H226

SMILES	GI50 (SR)	GI50 (OVCAR-5)	GI50 (SF-268)	GI50 (HCT-15) [µM]	GI50 (MDA-N)	GI50 (M14)	GI50 (NCI-H522)	GI50 (MCF7)	GI50 (PC-3)	GI50 (BT-549)	GI50 (UO-31)	GI50 (786-0)	GI50 (NCI/ADR-RES)	GI50 (UACC-257)	GI50 (MOLT-4)	GI50 (OVCAR-4)	GI50 (HT-29)	GI50 (RPMI-8226)	GI50 (NCI-H226)
Oc1ccnc(SCc2ccc(Cl)cc2)n1	> 100 µM (inactive)	> 100 µM (inactive)	> 100 µM (inactive)	> 100	> 100 µM (inactive)	> 100 µM (inactive)	62.2 µM (inactive)	> 100 µM (inactive)	> 100 µM (inactive)	> 100 µM (inactive)	> 100 µM (inactive)	> 100 µM (inactive)	> 100 µM (inactive)	> 100 µM (inactive)	63.7 µM (inactive)	> 100 µM (inactive)	> 100 µM (inactive)	56.1 µM (inactive)	
Cc1ccc(O)c(C2=CC3=NNC(=O)C3C(c3cccc(Cl)c3)C2)c1 (stereo not given)	29.4 µM (inactive)	51.6 µM (inactive)	30.5 µM (inactive)	30.6	29.5 µM (inactive)	52 µM (inactive)		17.7 µM (inactive)	40.6 µM (inactive)	26.7 µM (inactive)	71.6 µM (inactive)	52.1 µM (inactive)	50.4 µM (inactive)	64.3 µM (inactive)	46.2 µM (inactive)	12.8 µM (inactive)	25.9 µM (inactive)	24.4 µM (inactive)	
C[C@]12[C@@H]3CC[C@H]1[C@@H](O)C(=O)N2CC3	> 100 µM (inactive)	> 100 µM (inactive)	> 100 µM (inactive)	> 100	> 100 µM (inactive)	> 100 µM (inactive)	> 100 µM (inactive)	> 100 µM (inactive)	> 100 µM (inactive)	> 100 µM (inactive)	> 100 µM (inactive)	> 100 µM (inactive)	> 100 µM (inactive)	> 100 µM (inactive)	> 100 µM (inactive)	> 100 µM (inactive)	> 100 µM (inactive)	> 100 µM (inactive)	
N#C[C@@H](c1ccccn1)c1ncccc1[N+](=O)[O-]	> 100 µM (inactive)	> 100 µM (inactive)	> 100 µM (inactive)	> 100	> 100 µM (inactive)	> 100 µM (inactive)	> 100 µM (inactive)	74 µM (inactive)	> 100 µM (inactive)	> 100 µM (inactive)	> 100 µM (inactive)	> 100 µM (inactive)	> 100 µM (inactive)		> 100 µM (inactive)	> 100 µM (inactive)	> 100 µM (inactive)	> 100 µM (inactive)	
COc1cc2oc(-c3ccc4c(c3)OCO4)c(OC)c(=O)c2c(O)c1OC		> 50 µM (inactive)	29.4 µM (inactive)	> 50	> 50 µM (inactive)	> 50 µM (inactive)	> 50 µM (inactive)	> 50 µM (inactive)	> 50 µM (inactive)	34.9 µM (inactive)	> 50 µM (inactive)	> 50 µM (inactive)	> 50 µM (inactive)	> 50 µM (inactive)	> 50 µM (inactive)	> 50 µM (inactive)	> 50 µM (inactive)		> 50 µM (inactive)
O=C(O)C(NCc1ccccc1)C(NCc1ccccc1)C(=O)O (stereo not given)	> 100 µM (inactive)		> 100 µM (inactive)	> 100	> 100 µM (inactive)	> 100 µM (inactive)	> 100 µM (inactive)	> 100 µM (inactive)		> 100 µM (inactive)	> 100 µM (inactive)	> 100 µM (inactive)	> 100 µM (inactive)	> 100 µM (inactive)	> 100 µM (inactive)	> 100 µM (inactive)	> 100 µM (inactive)	> 100 µM (inactive)	> 100 µM (inactive)
Cn1c2ccccc2c(=O)c2c(O)cc3c(c21)C=CC1(CCCCC1)O3		7.18 µM (inactive)	> 10 µM (inactive)	> 10	> 10 µM (inactive)	> 10 µM (inactive)	> 10 µM (inactive)	9.1 µM (inactive)	> 10 µM (inactive)	2.08 µM (inactive)	> 10 µM (inactive)	9.95 µM (inactive)	> 10 µM (inactive)	> 10 µM (inactive)	> 10 µM (inactive)	> 10 µM (inactive)	3.85 µM (inactive)	> 10 µM (inactive)	5.89 µM (inactive)
C/C(=N\NC(=O)c1ccc(Cl)cc1)c1nc2cccnc2[nH]1	18 µM (inactive)	> 100 µM (inactive)	17.1 µM (inactive)	11.7	30.5 µM (inactive)	36.2 µM (inactive)	18.7 µM (inactive)	30.2 µM (inactive)	> 100 µM (inactive)	22.3 µM (inactive)	26.7 µM (inactive)	16 µM (inactive)	20.5 µM (inactive)	20 µM (inactive)	14.3 µM (inactive)	18.2 µM (inactive)	45.9 µM (inactive)	27 µM (inactive)	
